Laboratory results from US10800741B2 (ANCUREALL PHARMACEUTICAL (SHANGHAI) CO., LTD., priority 2017, dated 2020).

What was measured:
Karpas 299 (NPM-ALK) = test: In vitro growth inhibition of Karpas 299 tumor cells (MTT/CCK8); type: cell-based, Human; conditions: Homo sapiens, KARPAS-299; in vitro growth inhibition (or induction of apoptosis), cells cultured 3 to 5 days, MTT (CCK8); read-out: IC50 Karpas 299 (NPM-ALK)
RS4:11 = test: In vitro growth inhibition of FLT3 wild type overexpressing cells RS4:11; type: cell-based; conditions: Homo sapiens, cells over expressing FLT3 wild-type
Description: (§1) Adherent cells were digested with 0.25% trypsin-EDTA (Gibco). Suspension culture cells were collected by centrifugation (1700 rpm, 3 minutes). The supernatant was discarded and the cells were counted. According to each cell growth cycle, different concentrations of cells were prepared (5˜10×10^4 cells per ml), and inoculated to 96-well plates (Corning), with 100 μl per well, and incubated overnight at 37° C., 5% CO2. The next day, the test compound was added to the cultured cells (2 wells in parallel). The final concentration of the solvent was less than 1/1,000. The cells were further cultured for 3 to 5 days and assayed by MTT.
(§2) The MTT test reagent was a Dojindo CCK8 kit and the Microplate Reader was a THERMO […] FC instrument.
(§3) The adherent cells were taken out from the cell culture medium, and immediately added to a freshly prepared complete medium containing 10% CCK8 (5% FBS), 100 ul per hole. The suspended cells were directly added to a CCK8 reagent until reaching a final concentration of 10% and cultured for 1 to 4 hours. When a dark yellow color could be observed in the solvent control wells, the absorbance value at OD450 nm was measured and the cell growth rate was calculated according to the following formula: Cell Growth Rate (%)=100×(T−T0)/(C−T0)
(§4) T=optical density of drug-treated cell wells−optical density of blank control wells; T0=optical density of cell wells before drug treatment−optical density of blank control wells; C=optical density of solvent control wells−optical density of blank control wells. […] The experiments were repeated 1 to 3 times and a statistical analysis of data was conducted.
(§5) The present compounds which has a high growth inhibition activity on tumor cells positive expressing FLT3-ITD were selected for the determination of IC50 concentration on FLT3 wild tyoverexpressing cells RS4:11 and FLT3 wild-type normal expressing cells Jurkat. The specific test method is the same as that of test example 1.

Hep3B2 (FGFR3/4+++) = test: In vitro growth inhibition of Hep3B2 tumor cells (MTT/CCK8); type: cell-based, Human; conditions: Homo sapiens, Hep3B; in vitro growth inhibition (or induction of apoptosis), cells cultured 3 to 5 days, MTT (CCK8); read-out: IC50 Hep3B2 (FGFR3/4+++)
AN3-CA = test: In vitro growth inhibition of AN3-CA cells; type: cell-based; conditions: Homo sapiens, FGFR2 mutant
Description: as §1, §2, §3, §4
Mutations in the FGFR1-4 gene often occur in different types of cancer patients. In order to test the growth inhibition activity of the present compound against tumor cells expressing different FGFR variants, tumor cell lines expressing representative FGFR1-4 were selected for further determining the activity of compounds 25, 66, 38 and 95 of the present invention. BGJ398, a selective inhibitor of FGFR1-4, was used as the control compound. The specific test method is the same as test example 1.

Jurkat = test: In vitro growth inhibition of FLT3 wild-type normal expressing cells Jurkat; type: cell-based; conditions: Homo sapiens, cells normally expressing FLT3 wild-type
Description: as §1, §2, §3, §4, §5

Row | IC50 (Karpas 299 (NPM-ALK)) [nM] | IC50 (RS4:11) [nM] | IC50 (Hep3B2 (FGFR3/4+++)) [nM] | SMILES | IC50 (AN3-CA) [nM] | IC50 (Jurkat) [nM]
1 | 11.7 | 65.8 | 4.24 | COc1cc2nccc(Oc3ccc(NC(=O)Nc4cc(C(C)(C)C)nn4C)c(Cl)c3Cl)c2cc1C(N)=O [Compound 38, 4-{4-[3-(5-tert-butyl-2-methyl-2H-pyrazol-3-yl)-ureido]-2,3-dichloro-phenoxy}-7-methoxyquinolin-6-carboxamide] | 3.67 | 202
2 | 44.1 | 523 | 6.06 | COCCOc1cc2nccc(Oc3ccc(NC(=O)Nc4cc(C(C)(C)C)n[nH]4)c(Cl)c3)c2cc1NC(C)=O [Compound 66, N-[4-{4-[3-(5-tert-butyl-2H-pyrazol-3-yl)-ureido]-3-chloro-phenoxy}-7-(2-methoxy-ethoxy)-quinolin-6-yl]-acetamide] | 3.95 | 462
3 | 7.5 |  | 8.52 | CN1CCN(CCCOc2cc3nccc(Oc4ccc(NC(=O)Nc5cc(C(C)(C)C)n[nH]5)c(Cl)c4Cl)c3cc2C(N)=O)CC1 [Compound 95] | 3.89 | 
